Experimental data taken from ChEMBL document CHEMBL1142066, “In vitro effects of antimicrobial agents on planktonic and biofilm forms of Staphylococcus lugdunensis clinical isolates” (2007).
Values after ≈ are worked out from the molar mass of the structure shown. Active and inactive are the calls of the source. The rule behind the calls is not given here.

Tests used:
[1] = test system: Staphylococcus lugdunensis; assay: Increase in biofilm formation of Staphylococcus lugdunensis assessed as percent biofilm forming isolates; assay type: functional
[2] = test system: Staphylococcus lugdunensis; assay: Antimicrobial susceptibility of Staphylococcus lugdunensis IDRL2414 biofilms after 24 hrs assessed as bacterial regrowth; assay type: functional
[3] = test system: Staphylococcus lugdunensis; assay: Antimicrobial susceptibility of Staphylococcus lugdunensis isolates by broth microdilution method; assay type: functional; conditions: for MIC50 / MIC90: Staphylococcus lugdunensis
[4] = test system: Staphylococcus lugdunensis; assay: Antimicrobial susceptibility of Staphylococcus lugdunensis IDRL2664 biofilms after 24 hrs assessed as bacterial regrowth; assay type: functional
[5] = test system: Staphylococcus lugdunensis; assay: Antimicrobial susceptibility of Staphylococcus lugdunensis IDRL2394 biofilms after 24 hrs assessed as bacterial regrowth; assay type: functional
[6] = test system: Staphylococcus lugdunensis; assay: Antimicrobial susceptibility of Staphylococcus lugdunensis IDRL5256 biofilms after 24 hrs assessed as bacterial regrowth; assay type: functional
[7] = test system: Staphylococcus lugdunensis; assay: Decrease in biofilm formation of Staphylococcus lugdunensis assessed as percent biofilm forming isolates; assay type: functional; parameters: concentration or dose not given beside the values
[8] = test system: Staphylococcus lugdunensis; assay: Antimicrobial susceptibility of Staphylococcus lugdunensis IDRL2640 biofilms after 24 hrs assessed as bacterial regrowth; assay type: functional
[9] = test system: Staphylococcus lugdunensis; assay: Antimicrobial susceptibility of Staphylococcus lugdunensis IDRL2588 biofilms after 24 hrs assessed as bacterial regrowth; assay type: functional
[10] = test system: Staphylococcus lugdunensis; assay: Antimicrobial susceptibility of Staphylococcus lugdunensis IDRL2554 biofilms after 24 hrs assessed as bacterial regrowth; assay type: functional
[11] = test system: Staphylococcus lugdunensis; assay: Antimicrobial susceptibility of Staphylococcus lugdunensis IDRL2526 biofilms after 24 hrs assessed as bacterial regrowth; assay type: functional
[12] = test system: Staphylococcus lugdunensis; assay: Antimicrobial susceptibility of Staphylococcus lugdunensis IDRL2639 biofilms after 24 hrs assessed as bacterial regrowth; assay type: functional
[13] = test system: Staphylococcus lugdunensis; assay: Effect on biofilm formation of Staphylococcus lugdunensis assessed as percent non-biofilm forming isolates; assay type: functional; parameters: concentration or dose not given beside the values
[14] = test system: Staphylococcus lugdunensis; assay: Antimicrobial susceptibility of Staphylococcus lugdunensis IDRL2622 biofilms after 24 hrs assessed as bacterial regrowth; assay type: functional
[15] = test system: Staphylococcus lugdunensis; assay: Antimicrobial susceptibility of Staphylococcus lugdunensis IDRL5254 biofilms after 24 hrs assessed as bacterial regrowth; assay type: functional
[16] = test system: Staphylococcus lugdunensis; assay: Antimicrobial susceptibility of Staphylococcus lugdunensis IDRL5258 biofilms after 24 hrs assessed as bacterial regrowth; assay type: functional
[17] = test system: Staphylococcus lugdunensis; assay: Antimicrobial susceptibility of Staphylococcus lugdunensis IDRL856 biofilms after 24 hrs assessed as bacterial regrowth; assay type: functional
[18] = test system: Staphylococcus lugdunensis; assay: Antimicrobial susceptibility of Staphylococcus lugdunensis IDRL5204 biofilms after 24 hrs assessed as bacterial regrowth; assay type: functional
[19] = test system: Staphylococcus lugdunensis; assay: Antimicrobial susceptibility of Staphylococcus lugdunensis IDRL2492 biofilms after 24 hrs assessed as bacterial regrowth; assay type: functional
[20] = test system: Staphylococcus aureus; assay: Increase in biofilm formation of Staphylococcus aureus SA113 at 0.25 times MIC; assay type: functional, organism-based
[21] = test system: Staphylococcus epidermidis; assay: Increase in biofilm formation of Staphylococcus epidermidis RP62A at 0.25 times MIC; assay type: functional, organism-based
[22] = test system: Staphylococcus aureus; assay: Decrease in biofilm formation of Staphylococcus aureus SA113; assay type: functional, organism-based
[23] = test system: Staphylococcus epidermidis; assay: Decrease in biofilm formation of Staphylococcus epidermidis RP62A; assay type: functional, organism-based
[24] = test system: Staphylococcus lugdunensis; assay: Antimicrobial susceptibility of Staphylococcus lugdunensis IDRL5204 isolate from prosthetic joint infection patient by broth microdilution method; assay type: functional
[25] = test system: Staphylococcus lugdunensis; assay: Stimulation of Staphylococcus lugdunensis IDRL5256 biofilm formation; assay type: functional, organism-based
[26] = test system: Staphylococcus lugdunensis; assay: Antimicrobial susceptibility of Staphylococcus lugdunensis IDRL5254 isolate from intravascular catheter infection patient by broth microdilution method; assay type: functional
[27] = test system: Staphylococcus lugdunensis; assay: Antimicrobial susceptibility of Staphylococcus lugdunensis IDRL5256 isolate from prosthetic joint infection patient by broth microdilution method; assay type: functional
[28] = test system: Staphylococcus lugdunensis; assay: Antimicrobial susceptibility of Staphylococcus lugdunensis IDRL2394 isolate from prosthetic joint infection patient by broth microdilution method; assay type: functional
[29] = test system: Staphylococcus lugdunensis; assay: Ratio of MBC to MIC for Staphylococcus lugdunensis IDRL5256 isolate from prosthetic joint infection patient by broth microdilution method; assay type: functional

| MIC50 [3] [µg/mL] | MIC90 [3] [µg/mL] | SMILES | Activity [1] [%] | BBC [2] [µg/mL] | MBC50 [3] [µg/mL] | MBC90 [3] [µg/mL] | BBC [5] [µg/mL] | BBC [6] [µg/mL] | Activity [7] [%] | BBC [8] [µg/mL] | BBC [9] [µg/mL] | BBC [11] [µg/mL] | BBC [12] [µg/mL] | Activity [13] [%] | BBC [14] [µg/mL] | BBC [15] [µg/mL] | BBC [16] | BBC [17] [µg/mL] | BBC [18] [µg/mL] | BBC [19] [µg/mL] | also measured |
| --- | --- | --- | --- | --- | --- | --- | --- | --- | --- | --- | --- | --- | --- | --- | --- | --- | --- | --- | --- | --- | --- |
| 0.125 (≈ 0.311 µM) | 0.25 (≈ 0.623 µM) | COc1c(N2C[C@@H]3CCCN[C@@H]3C2)c(F)cc2c(=O)c(C(=O)O)cn(C3CC3)c12 [MOXIFLOXACIN] | 27 | 0.5 | 0.125 (≈ 0.311 µM) | 0.25 (≈ 0.623 µM) | 2 | 1 | 40 | 2 | 0.5 | 0.5 | 0.25 | 33 | 2 | 0.5 | <=0.125 ug ml-1 | 0.25 | 0.5 | 0.25 | BBC [4]: <=0.125 ug ml-1; BBC [10]: <=0.125 ug ml-1 |
| 0.5 (≈ 1.21 µM) | 0.5 (≈ 1.21 µM) | CCOc1ccc2ccccc2c1C(=O)N[C@@H]1C(=O)N2[C@@H]1SC(C)(C)[C@@H]2C(=O)O [NAFCILLIN] | 93 | >128 | 0.5 (≈ 1.21 µM) | 2 (≈ 4.83 µM) | >128 | >128 | 0 | >128 | 8 | 4 | 1 | 7 | 8 | >128 | 0.5 µg/mL | 16 | 0.5 | 8 | BBC [4]: 2 µg/mL; Activity [22]: Active; Activity [23]: Active; BBC [10]: 2 µg/mL |
| ≤ 0.03 | ≤ 0.03 | CO[C@H]1/C=C/O[C@@]2(C)Oc3c(C)c(O)c4c(O)c(c(/C=N/N5CCN(C)CC5)c(O)c4c3C2=O)NC(=O)/C(C)=C\C=C\[C@H](C)[C@H](O)[C@@H](C)[C@@H](O)[C@@H](C)[C@H](OC(C)=O)[C@@H]1C [RIFAMPIN] | 7 | 0.25 | 8 (≈ 9.72 µM) | >32 | 0.25 | 32 | 0 | 64 | 64 | 32 | 32 | 93 | 64 | 64 | 8 µg/mL | 8 | 32 | 64 |  |
| 0.25 (≈ 0.563 µM) | 1 (≈ 2.25 µM) | CN(C)[C@@H]1C(O)=C(C(N)=O)C(=O)[C@@]2(O)C(O)=C3C(=O)c4c(O)cccc4[C@@](C)(O)[C@H]3C[C@@H]12 [TETRACYCLINE] | 7 | 128 | >32 | >32 | 128 | 128 | 93 | 128 | 128 | 128 | 16 | 0 | 128 | 128 | 64 µg/mL | 128 | 1 | 128 | BBC [4]: 128 µg/mL; BBC [10]: 128 µg/mL; Activity [25]: Active |

Second part, the compound before the results:

| SMILES | MIC50 [3] [µg/mL] | MIC90 [3] [µg/mL] | Activity [1] [%] | BBC [2] [µg/mL] | MBC50 [3] [µg/mL] | MBC90 [3] [µg/mL] | BBC [5] [µg/mL] | BBC [6] [µg/mL] | Activity [7] [%] | BBC [8] [µg/mL] | BBC [9] [µg/mL] | BBC [11] [µg/mL] | BBC [12] [µg/mL] | Activity [13] [%] | BBC [14] [µg/mL] | BBC [15] [µg/mL] | BBC [16] | BBC [17] [µg/mL] | BBC [18] [µg/mL] | BBC [19] [µg/mL] | also measured |
| --- | --- | --- | --- | --- | --- | --- | --- | --- | --- | --- | --- | --- | --- | --- | --- | --- | --- | --- | --- | --- | --- |
| CCCCCCCCCC(=O)N[C@@H](Cc1c[nH]c2ccccc12)C(=O)N[C@H](CC(N)=O)C(=O)N[C@@H](CC(=O)O)C(=O)N[C@@H]1C(=O)NCC(=O)N[C@@H](CCCN)C(=O)N[C@@H](CC(=O)O)C(=O)N[C@H](C)C(=O)N[C@@H](CC(=O)O)C(=O)NCC(=O)N[C@H](CO)C(=O)N[C@@H]([C@H](C)CC(=O)O)C(=O)N[C@@H](CC(=O)c2ccccc2N)C(=O)O[C@@H]1C | 0.125 (≈ 0.0771 µM) | 0.25 (≈ 0.154 µM) | 13 | >128 | 0.5 (≈ 0.309 µM) | 1 (≈ 0.617 µM) | 64 | 64 | 0 | >128 | 128 | 8 | 32 | 87 | 1 | 128 | 16 µg/mL | 16 | 8 | 8 | BBC [4]: 32 µg/mL; BBC [10]: 4 µg/mL |
| Cc1nnc(SCC2=C(C(=O)O)N3C(=O)[C@@H](NC(=O)Cn4cnnn4)[C@H]3SC2)s1 [CEFAZOLIN] | 0.25 (≈ 0.55 µM) | 0.5 (≈ 1.1 µM) | 13 | >128 | 0.5 (≈ 1.1 µM) | 1 (≈ 2.2 µM) | >128 | >128 | 7 | >128 | >128 | >128 | 4 | 80 | 2 | >128 | >128 µg/mL | >128 | 1 | >128 | BBC [4]: 8 µg/mL; BBC [10]: >128 µg/mL |
| CC(=O)NC[C@H]1CN(c2ccc(N3CCOCC3)c(F)c2)C(=O)O1 [LINEZOLID] | 1 (≈ 2.96 µM) | 1 (≈ 2.96 µM) | 0 | >128 | >128 | >128 | >128 | >128 | 80 | >128 | >128 | >128 | >128 | 20 | >128 | >128 | >128 µg/mL | >128 | 4 | >128 | Activity [20]: Active; BBC [4]: >128 µg/mL; BBC [10]: >128 µg/mL; Activity [21]: Active |
| Cc1cc(NS(=O)(=O)c2ccc(N)cc2)no1 [SULFAMETHOXAZOLE] |  |  |  |  |  |  |  |  |  |  |  |  |  |  |  |  |  |  |  |  | MIC [24]: 304 µg/mL (≈ 1200 µM) |
| COc1cc(Cc2cnc(N)nc2N)cc(OC)c1OC [TRIMETHOPRIM] |  |  |  |  |  |  |  |  |  |  |  |  |  |  |  |  |  |  |  |  | MIC [24]: 16 µg/mL (≈ 55.1 µM) |
| CN[C@H](CC(C)C)C(=O)N[C@H]1C(=O)N[C@@H](CC(N)=O)C(=O)N[C@H]2C(=O)N[C@H]3C(=O)N[C@H](C(=O)N[C@H](C(=O)O)c4cc(O)cc(O)c4-c4cc3ccc4O)[C@H](O)c3ccc(c(Cl)c3)Oc3cc2cc(c3O[C@@H]2O[C@H](CO)[C@@H](O)[C@H](O)[C@H]2O[C@H]2C[C@](C)(N)[C@H](O)[C@H](C)O2)Oc2ccc(cc2Cl)[C@H]1O [VANCOMYCIN] | 1 (≈ 0.69 µM) | 2 (≈ 1.38 µM) | 27 | >128 | >128 | >128 | >128 | >128 | 27 | >128 | >128 | >128 | >128 | 47 | >128 | >128 | >128 µg/mL | >128 | 4 | >128 | MBC [26]: 64 µg/mL (≈ 44.2 µM); BBC [4]: 8 µg/mL; MBC [27]: 4 µg/mL (≈ 2.76 µM); BBC [10]: 4 µg/mL; MBC [28]: 64 µg/mL (≈ 44.2 µM); Ratio [29]: >=64 |
